# Assay results taken from ChEMBL document CHEMBL1157539, “Thousands of chemical starting points for antimalarial lead identification” (Nature, 2010).
# System: Plasmodium falciparum
# Experiment: GSK_TCMDC: Inhibition of Plasmodium falciparum 3D7 in whole erythrocytes, using parasite LDH activity as an index of growth.
# Format: functional, organism-based
# Settings: Plasmodium falciparum, 3D7
row,Compound,XC50 [µM]
1,CC(C)CCn1c(Sc2ccc(C#N)c([N+](=O)[O-])c2)nnc1-c1ccc(Cl)cc1,0.875
2,Nc1nc(N)c2c(ccc3c2ccn3Cc2ccccc2)n1,0.0032
3,COc1ccc(OC)c(NC(=O)c2c(-c3c(F)cccc3Cl)noc2C)c1,0.701
4,NC1CCCN(Cc2ccc(-c3ccc(-c4nc5ccccc5[nH]4)s3)cc2)C1 (stereo not drawn),0.672
5,Cc1ccc(CNC(=O)[C@H](Cc2ccccc2)Nc2cc(C)nc(NCC3CCCCC3)n2)cc1,0.899
6,COc1ccc(Oc2cnc(N)nc2N)c(C(C)C)c1,0.74
7,CC(C)CCC[C@@H]([C@@H](CC1CCCCC1)C(=O)N[C@@H](CCCCNC(=O)OCc1ccccc1)C(=O)Nc1nccs1)N(O)C=O,0.457
8,COc1c(C2CCN(CCCCNC(=O)c3ccc(-c4ccc(C(F)(F)F)cc4)c(C(=O)OC(C)C)c3)CC2)ccc2c1CCCC2,0.858
9,COc1ccc(N2CCN(CCCN3CCN(C(=O)c4ccc(/C=C/c5ccc(Cl)c(Cl)c5)cc4)CC3)CC2)c(OC)c1,0.907
10,C=C[C@H]1CN(CCCCCCC)CC[C@H]1CC(=O)Nc1cnnc2ccc(OC)cc12,0.529
11,Cc1noc(C)c1-c1cccc(CNCc2ccc(-c3ccc(-c4nc5cc(C(F)(F)F)ccc5[nH]4)s3)cc2)c1,0.181
12,N#Cc1ccc2c(c1)CCN(CCC1CCC(NC(=O)/C=C/c3cc(Br)cs3)CC1)CC2 (stereo not drawn),0.997
13,COc1ccc2nccc(N3CCC(SCCNS(=O)(=O)c4ccc5c(c4)OCCO5)C3)c2n1 (stereo not drawn),0.981
14,COc1ccc2nccc([C@@H](O)CN3CCC(NC(=O)/C(=C/c4ccccc4)c4ccc(-c5ccccc5)cc4)CC3)c2c1,1.05
15,COc1ccc(CN2CCCN(Cc3cccc(C(=O)Nc4ccc(C(C)(C)C)cc4)c3)CC2)cc1,0.891
16,Cc1[nH]c(C)c(-c2ccc(Oc3ccc(F)cc3)cc2)c(=O)c1Br,0.0549
17,CC(C)(CNCc1ccc(F)c(F)c1)c1nc(-c2ccc(Cl)c(O)c2)c(-c2ccncc2)[nH]1,0.66
18,CCC(C)NC(=O)Nc1ccc(-c2cccc(-c3nc4cccc(C)c4[nH]3)c2)cc1 (stereo not drawn),0.189
19,O=C(Nc1ccc(CN2CCOCC2)cc1)c1ccc(-c2ccc(Cl)cc2)o1,0.862
20,O=C(Cn1c(CCc2cccc(F)c2F)nc(=O)c2ccccc21)N(Cc1ccc(-c2ccc(C(F)(F)F)cc2)cc1)C1CCN(C2=NCCS2)CC1,1.33
21,CC1(C)NC(N)=NC(=N)N1OCCCOc1c(Cl)cc(Cl)cc1Cl,0.00294
22,O=C(N[C@@H](CC1CCCCC1)C(=O)NCCN1CCCCC1)c1ccc(O)c(-c2ccc(Cl)c(Cl)c2)c1,0.148
23,CCNc1cc(C)nc(Nc2ccc(NC(=O)c3ccco3)cc2)n1,1.09
24,O=C(/C=C/c1ccc(Cl)c(Cl)c1)NCCCCCN1CCC(NC(=O)c2ccc(F)cc2)CC1,0.706

row,Compound,XC50 [µM]
1,CS(=O)(=O)N1CC2(CCN(CCC(NC(=O)NCc3ccccc3Cl)c3ccc(Cl)c(Cl)c3)CC2)c2ccccc21 (stereo not drawn),1.11
2,c1ccc(Oc2ccc(Nc3ccnc(Nc4ccc5cn[nH]c5c4)n3)cc2)cc1,0.733
3,Cc1cnc(C(=O)Nc2cccc(-c3csc(-c4nc5ccccc5[nH]4)c3)c2)cn1,0.275
4,O=C(/C=C/c1ccc(Cl)c(Cl)c1)NCCCCCN1CCC(c2c[nH]c3c(-c4ccccc4)cccc23)CC1,0.246
5,CC(C)(CNCc1ccc(C(F)(F)F)cc1)c1nc(-c2ccc(Cl)c(O)c2)c(-c2ccncc2)[nH]1,0.734
6,O=C(CCCCCNC(=O)c1ccc(O)c(-c2ccc(Cl)c(Cl)c2)c1)NCc1cccc(C(F)(F)F)c1,0.731
7,Cc1cc(NC2CCCC2)nc(Nc2ccc(F)cc2)n1,0.471
8,CS(=O)(=O)CCNCc1nc(-c2ccc3ncnc(Nc4ccc(OCc5ccccc5)c(Cl)c4)c3c2)cs1,0.802
9,NC1CCCN(Cc2ccc(-c3cccc(-c4nc5cc(F)ccc5[nH]4)c3)cc2)C1 (stereo not drawn),0.64
10,Cc1ccc(CON2C(N)=NC(N)=NC23CCCCC3)c2ccccc12,0.0726
11,CCCc1cc2c3c(N)nc(N)nc3ccc2n1CC,0.0477
12,CNC(=O)NC1=NC(C)(C)N(OCc2ccc(Cl)c(Cl)c2)C(NC(=O)NC)=N1,0.601
13,CSc1nc2nc(C)c(Cc3cccc(F)c3)c(C)n2n1,0.904
14,CCCC(=O)c1cnc2c(I)cccc2c1Nc1ccccc1C,1.16
15,O=C(Nc1ccc(NC2=NCCN2)cc1)Nc1ccc(NC2=NCCN2)cc1,0.845
16,CC(=O)N/N=C/[C@H](CCc1ccccc1)NC(=O)[C@H](CC(C)C)NC(=O)c1ccc(OCCN2CCOCC2)cc1,0.222
17,COc1cccc(-c2cc(C(=O)Nc3cc(Oc4ccc(O)cc4)cc([N+](=O)[O-])c3)on2)c1,1.05
18,O=C(N[C@@H](Cc1ccccc1)[C@H](O)CNC1CCCCC1)c1cc(C2CCCC2)cc(N2CCCC2=O)c1,0.169
19,CCC(C)NC(=O)CN1CN(c2ccccc2)C2(CCN(C(=O)c3ccc(C(C)(C)C)cc3)CC2)C1=O (stereo not drawn),0.125
20,CCCCOC(=O)c1ccc(NC(=O)Nc2ccc(Cn3ncc(N4CCCNCC4)c(Cl)c3=O)cc2)cc1,0.739
21,Cc1cccc2nc(-c3ccc(-c4ccc(CN5CCCCC5)cc4)s3)[nH]c12,0.521
22,CC(=O)Oc1c(C2CCN(CCCCNC(=O)c3ccc(-c4ccc(C#N)cc4)cc3)CC2)ccc2c1CCCC2,1.13
23,CC(=O)Oc1c(C2CCN(CCCCNC(=O)c3ccc(NC(=O)c4ccc(Cl)cc4)cc3)CC2)ccc2c1CCCC2,0.764
24,O=C(NC1CCN(CCCOc2ccnc3cc(Cl)ccc23)C1)c1ccc(Br)cc1 (stereo not drawn),1.02
